Results published in the supplement of paper PMC10307832.

Legend:
Assay in all cases: relative viability (nuclei count vs DMSO), 5 days (fraction); higher = more cells survive
[1] = compound: COc1cc2nc(N3CCCN(C)CC3)nc(NC3CCN(Cc4ccccc4)CC3)c2cc1OC + COc1cccc2cc(-c3nc([C@H]4CC[C@H](C(=O)O)CC4)n4ncnc(N)c34)[nH]c12 [OSI-027] (partner 0.5 µM)
Method in brief: (§1)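 Medians of duplicate plates are given as relative viability. That measure is the nuclei count in treated wells divided by the count in vehicle wells. Counts were taken on 4× images of lung cancer cell lines in 1536-well plates, 5 days after pin-tool dosing the day after seeding with one drug alone or a fixed anchor-drug dose plus five library-drug doses (not always all listed) in √10 steps.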

[2] = compound: COc1cc2nc(N3CCCN(C)CC3)nc(NC3CCN(Cc4ccccc4)CC3)c2cc1OC + N=C(N)NC(=N)NCCc1ccccc1 [Phenformin] (partner 250 µM)
Method in brief: as §1

[3] = compound: COc1cc2nc(N3CCCN(C)CC3)nc(NC3CCN(Cc4ccccc4)CC3)c2cc1OC + C[C@]1(O)C[C@@H](c2nc(-c3ccc4ccc(-c5ccccc5)nc4c3)c3c(N)nccn32)C1 [Linsitinib] (partner 1 µM)
Method in brief: as §1

AZD6482 + Luminespib = compound: Cc1cc([C@@H](C)Nc2ccccc2C(=O)O)c2nc(N3CCOCC3)cc(=O)n2c1 [AZD6482] + CCNC(=O)c1noc(-c2cc(C(C)C)c(O)cc2O)c1-c1ccc(CN2CCOCC2)cc1 [Luminespib] (partner 0.01 µM)
Method in brief: as §1

Cell Line	relative viability ([1]; first compound 0.2 µM)	relative viability ([1]; first compound 0.6325 µM)	relative viability ([1]; first compound 2 µM)	relative viability ([1]; first compound 6.325 µM)	relative viability ([2]; first compound 0.2 µM)	relative viability ([2]; first compound 0.6325 µM)	relative viability ([2]; first compound 2 µM)	relative viability ([2]; first compound 6.325 µM)	relative viability ([3]; first compound 0.2 µM)	relative viability ([3]; first compound 0.6325 µM)	relative viability ([3]; first compound 2 µM)	relative viability ([3]; first compound 6.325 µM)	relative viability (AZD6482 + Luminespib; first compound 0.08 µM)	relative viability (AZD6482 + Luminespib; first compound 0.253 µM)	relative viability (AZD6482 + Luminespib; first compound 0.8 µM)	relative viability (AZD6482 + Luminespib; first compound 2.53 µM)	relative viability (AZD6482 + Luminespib; first compound 8 µM)
NCI-H1666	0.816	0.877	0.757	0.859	0.545	0.574	0.542	0.505	0.866	0.919	0.783	0.675	1	0.942	1.06	0.876	1.21
LC-2-ad	0.849	0.841	0.83	0.761	0.528	0.568	0.644	0.521	0.889	0.818	0.891	0.833	0.976	0.954	1.28	0.914	1.12
SK-LU-1	0.358	0.302	0.36	0.179	0.537	0.517	0.616	0.462	0.996	1.07	0.886	0.724		0.189	0.203	0.145	0.168
ChaGo-K-1	0.572	0.604	0.564	0.501	0.51	0.494	0.492	0.498					0.486	0.526	0.574	0.593	0.501
COR-L 105	0.534	0.882	0.487	0.554	0.461	0.514	0.472	0.343	1.09	0.888	0.833	0.628	0.75	0.867	1.04	0.46	0.663
NCI-H1975	0.785	0.693	0.744	0.776	0.414	0.431	0.411	0.389	0.989	1.02	1.11	0.905	0.171	0.272	0.17	0.162	0.224
Calu-6									0.881	0.903	1.02	0.962					
HCC-366	0.92	0.944	0.398	0.747	0.577	0.576	0.613	0.639	0.68	0.642	0.694	0.586					
NCI-H1648	0.258	0.318	0.313	0.275													
EBC-1									0.887	0.879	1.09	0.753					
NCI-H1299									1.01	0.939	1.1	0.97					
NCI-H2342	0.677	0.574	0.785	0.692	0.597	0.512	0.649	0.606					0.67	0.54	0.504	0.391	0.608
IA-LM									0.724	0.5	0.661	0.458					
NCI-H2170	0.802	0.711	0.695	0.682	0.402	0.407	0.425	0.387					0.712	0.508	0.697	0.485	0.521
